Experimental data published in PubChem BioAssay (NCI).
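The concentration for 50% growth inhibition is given as GI50. At the TGI there is no net growth.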

Experiments:
Experiment in all cases: inhibition of tumour cell growth, NCI panel, 384-well format
HCT-15 colon = tested on: HCT-15 colon
MDA-MB-435 melanoma = tested on: MDA-MB-435 melanoma
SF-539 CNS = tested on: SF-539 CNS
T-47D breast = tested on: T-47D breast
OVCAR-3 ovarian = tested on: OVCAR-3 ovarian
A498 renal = tested on: A498 renal
SK-MEL-28 melanoma = tested on: SK-MEL-28 melanoma
SK-MEL-2 melanoma = tested on: SK-MEL-2 melanoma
COLO 205 colon = tested on: COLO 205 colon
MDA-MB-231 breast = tested on: MDA-MB-231 breast
SW-620 colon = tested on: SW-620 colon
SK-OV-3 ovarian = tested on: SK-OV-3 ovarian
ACHN renal = tested on: ACHN renal
NCI-H522 lung = tested on: NCI-H522 lung
SN12C renal = tested on: SN12C renal
MOLT-4 leukemia = tested on: MOLT-4 leukemia
SNB-19 CNS = tested on: SNB-19 CNS
UACC-257 melanoma = tested on: UACC-257 melanoma
MCF7 breast = tested on: MCF7 breast
HOP-62 NSCLC = tested on: HOP-62 NSCLC
SK-MEL-5 melanoma = tested on: SK-MEL-5 melanoma
U251 glioblastoma = tested on: U251 glioblastoma
EKVX NSCLC = tested on: EKVX NSCLC
IGROV1 ovarian = tested on: IGROV1 ovarian
NCI-H23 lung = tested on: NCI-H23 lung
BT-549 breast = tested on: BT-549 breast
SF-295 CNS = tested on: SF-295 CNS
DU-145 prostate = tested on: DU-145 prostate
HL-60(TB) leukemia = tested on: HL-60(TB) leukemia
RXF 393 renal = tested on: RXF 393 renal
NCI-H322M lung = tested on: NCI-H322M lung
K-562 leukemia = tested on: K-562 leukemia
MDA-MB-468 breast = tested on: MDA-MB-468 breast
OVCAR-8 ovarian = tested on: OVCAR-8 ovarian
SR leukemia = tested on: SR leukemia
TK-10 renal = tested on: TK-10 renal
UACC-62 melanoma = tested on: UACC-62 melanoma
786-0 renal = tested on: 786-0 renal
HT29 colon = tested on: HT29 colon
OVCAR-4 ovarian = tested on: OVCAR-4 ovarian
OVCAR-5 ovarian = tested on: OVCAR-5 ovarian
SNB-75 CNS = tested on: SNB-75 CNS
UO-31 renal = tested on: UO-31 renal
HS 578T breast = tested on: HS 578T breast
NCI-H226 lung = tested on: NCI-H226 lung
HCT-116 colon = tested on: HCT-116 colon
CAKI-1 renal = tested on: CAKI-1 renal
A549 NSCLC = tested on: A549 NSCLC
NCI-H460 NSCLC = tested on: NCI-H460 NSCLC
MALME-3M melanoma = tested on: MALME-3M melanoma
HOP-92 NSCLC = tested on: HOP-92 NSCLC
KM12 colon = tested on: KM12 colon
SF-268 CNS = tested on: SF-268 CNS
PC-3 prostate = tested on: PC-3 prostate

With CC[C@@H]1C(=O)N(C)c2cnc(Nc3ccc(C(=O)NC4CCC(N5CCN(CC6CC6)CC5)CC4)cc3OC)nc2N1C(C)C (stereo partly drawn) the GI50 (HCT-15 colon) was 0.0358 µM, the TGI (HCT-15 colon) was 0.549 µM and the GI50 (MDA-MB-435 melanoma) was less than 0.01 µM. It also gave a TGI (MDA-MB-435 melanoma) of 0.0137 µM, a GI50 (SF-539 CNS) of 0.0305 µM and a TGI (SF-539 CNS) of 0.159 µM. The GI50 (T-47D breast) was 0.191 µM, the TGI (T-47D breast) was 0.897 µM and the GI50 (OVCAR-3 ovarian) was less than 0.01 µM. For the same compound, the TGI (OVCAR-3 ovarian) was 0.145 µM, the GI50 (A498 renal) was 0.0696 µM and the TGI (A498 renal) was 1.26 µM. For the same compound, the GI50 (SK-MEL-28 melanoma) was 0.0876 µM, the TGI (SK-MEL-28 melanoma) was 2.12 µM and the GI50 (SK-MEL-2 melanoma) was less than 0.01 µM. The TGI (SK-MEL-2 melanoma) was 0.0267 µM, the GI50 (COLO 205 colon) was less than 0.01 µM and the TGI (COLO 205 colon) was 1.31 µM. For the same compound, the GI50 (MDA-MB-231 breast) was 0.0424 µM, the TGI (MDA-MB-231 breast) was 1.79 µM and the GI50 (SW-620 colon) was less than 0.01 µM. The TGI (SW-620 colon) was 0.107 µM, the GI50 (SK-OV-3 ovarian) was 0.0213 µM and the TGI (SK-OV-3 ovarian) was 0.176 µM. For the same compound, the GI50 (ACHN renal) was 0.0892 µM, the TGI (ACHN renal) was 1.66 µM and the GI50 (NCI-H522 lung) was less than 0.01 µM. For the same compound, the TGI (NCI-H522 lung) was less than 0.01 µM, the GI50 (SN12C renal) was 0.232 µM and the TGI (SN12C renal) was 3.34 µM. It also gave a GI50 (MOLT-4 leukemia) of less than 0.01 µM, a TGI (MOLT-4 leukemia) of less than 0.01 µM and a GI50 (SNB-19 CNS) of 0.0968 µM. The TGI (SNB-19 CNS) was 2.97 µM, the GI50 (UACC-257 melanoma) was 1.16 µM and the TGI (UACC-257 melanoma) was 2.39 µM. It also gave a GI50 (MCF7 breast) of 0.011 µM, a TGI (MCF7 breast) of 1.27 µM and a GI50 (HOP-62 NSCLC) of 0.0233 µM. The TGI (HOP-62 NSCLC) was 1.16 µM, the GI50 (SK-MEL-5 melanoma) was 0.0147 µM and the TGI (SK-MEL-5 melanoma) was 0.127 µM. The GI50 (U251 glioblastoma) was 0.0408 µM, the TGI (U251 glioblastoma) was 1.42 µM and the GI50 (EKVX NSCLC) was 0.0371 µM. The TGI (EKVX NSCLC) was 0.235 µM, the GI50 (IGROV1 ovarian) was 0.0442 µM and the TGI (IGROV1 ovarian) was 1.17 µM. For the same compound, the GI50 (NCI-H23 lung) was less than 0.01 µM, the TGI (NCI-H23 lung) was 0.0282 µM and the GI50 (BT-549 breast) was 0.0196 µM. For the same compound, the TGI (BT-549 breast) was 0.159 µM, the GI50 (SF-295 CNS) was 0.0314 µM and the TGI (SF-295 CNS) was 1.51 µM. It also gave a GI50 (DU-145 prostate) of 0.0166 µM, a TGI (DU-145 prostate) of 1.2 µM and a GI50 (HL-60(TB) leukemia) of less than 0.01 µM. For the same compound, the TGI (HL-60(TB) leukemia) was less than 0.01 µM, the GI50 (RXF 393 renal) was less than 0.01 µM and the TGI (RXF 393 renal) was 0.0106 µM. For the same compound, the GI50 (NCI-H322M lung) was 0.066 µM, the TGI (NCI-H322M lung) was 1.1 µM and the GI50 (K-562 leukemia) was less than 0.01 µM. It also gave a TGI (K-562 leukemia) of 0.0238 µM, a GI50 (MDA-MB-468 breast) of less than 0.01 µM and a TGI (MDA-MB-468 breast) of less than 0.01 µM. For the same compound, the GI50 (OVCAR-8 ovarian) was 0.0181 µM, the TGI (OVCAR-8 ovarian) was 0.0385 µM and the GI50 (SR leukemia) was less than 0.01 µM. It also gave a TGI (SR leukemia) of less than 0.01 µM, a GI50 (TK-10 renal) of 0.0666 µM and a TGI (TK-10 renal) of 1.39 µM. The GI50 (UACC-62 melanoma) was 0.0279 µM, the TGI (UACC-62 melanoma) was 1.53 µM and the GI50 ([…]-0 renal) was 0.0907 µM. For the same compound, the TGI (786-0 renal) was 1.15 µM, the GI50 (HT29 colon) was less than 0.01 µM and the TGI (HT29 colon) was 0.0111 µM. For the same compound, the GI50 (OVCAR-4 ovarian) was 0.222 µM, the TGI (OVCAR-4 ovarian) was 1.12 µM and the GI50 (OVCAR-5 ovarian) was 0.0389 µM. The TGI (OVCAR-5 ovarian) was 1.71 µM, the GI50 (SNB-75 CNS) was 0.0714 µM and the TGI (SNB-75 CNS) was 2.1 µM. For the same compound, the GI50 (UO-31 renal) was 0.589 µM, the TGI (UO-31 renal) was 1.87 µM and the GI50 (HS 578T breast) was 0.0195 µM. The TGI (HS 578T breast) was 0.0497 µM, the GI50 (NCI-H226 lung) was 0.151 µM and the TGI (NCI-H226 lung) was 1.75 µM. For the same compound, the GI50 (HCT-116 colon) was less than 0.01 µM, the TGI (HCT-116 colon) was 1.03 µM and the GI50 (CAKI-1 renal) was 0.1 µM. It also gave a TGI (CAKI-1 renal) of 1.54 µM, a GI50 (A549 NSCLC) of 0.0416 µM and a TGI (A549 NSCLC) of 1.04 µM. It also gave a GI50 (NCI-H460 NSCLC) of less than 0.01 µM, a TGI (NCI-H460 NSCLC) of 1.28 µM and a GI50 (MALME-3M melanoma) of 0.0446 µM. The TGI (MALME-3M melanoma) was 1.76 µM, the GI50 (HOP-92 NSCLC) was 0.0969 µM and the TGI (HOP-92 NSCLC) was 1.7 µM. For the same compound, the GI50 (KM12 colon) was 0.0103 µM, the TGI (KM12 colon) was 0.0507 µM and the GI50 (SF-268 CNS) was 0.0321 µM. It also gave a TGI (SF-268 CNS) of 1.31 µM, a GI50 (PC-3 prostate) of 0.0534 µM and a TGI (PC-3 prostate) of 2.63 µM.
